Settings: 101.33 kPa, Liquid; for kinematic viscosity: Capillary tube (Ostwald / Ubbelohde) method; for mass density: Pycnometric method

OCCO [1,2-ethanediol]
Settings	kinematic viscosity [m2/s]	mass density [kg/m3]
273.15 K	5.1e-05	1127.43
283.15 K	2.96e-05	1120.35
293.15 K	1.92e-05	1113.25
303.15 K	1.28e-05	1106.26
313.15 K	8.8e-06	1099.2
323.15 K	6.22e-06	1092.07
333.15 K	4.6e-06	1084.84
